ChEMBL document CHEMBL4665642, “Anticancer profile of newly synthesized BRAF inhibitors possess 5-(pyrimidin-4-yl)imidazo[2,1-b]thiazole scaffold” (Bioorg Med Chem, 2019)
pIC50: −log10 of the molar value.

What was measured:
[1] = system: TK-10; experiment: Cytotoxicity against human TK-10 cells assessed as cell viability at 10 uM incubated for 48 hrs by sulforhodamine B assay relative to control; assay type: functional; conditions: read-out: Activity
[2] = system: M14; experiment: Cytotoxicity against human M14 cells assessed as cell viability at 10 uM incubated for 48 hrs by sulforhodamine B assay relative to control; assay type: functional; conditions: read-out: Activity
[3] = system: HL-60(TB); experiment: Cytotoxicity against human HL-60(TB) cells assessed as cell viability at 10 uM incubated for 48 hrs by sulforhodamine B assay relative to control; assay type: functional; conditions: read-out: Activity
[4] = system: OVCAR-4; experiment: Cytotoxicity against human OVCAR-4 cells assessed as cell viability at 10 uM incubated for 48 hrs by sulforhodamine B assay relative to control; assay type: functional; conditions: read-out: Activity
[5] = system: PC-3; experiment: Cytotoxicity against human PC-3 cells assessed as cell viability at 10 uM incubated for 48 hrs by sulforhodamine B assay relative to control; assay type: functional; conditions: read-out: Activity
[6] = system: SF-295; experiment: Cytotoxicity against human SF-295 cells assessed as cell viability at 10 uM incubated for 48 hrs by sulforhodamine B assay relative to control; assay type: functional; conditions: read-out: Activity
[7] = system: SF-539; experiment: Cytotoxicity against human SF-539 cells assessed as cell viability at 10 uM incubated for 48 hrs by sulforhodamine B assay relative to control; assay type: functional; conditions: read-out: Activity
[8] = system: OVCAR-3; experiment: Cytotoxicity against human OVCAR-3 cells assessed as cell viability at 10 uM incubated for 48 hrs by sulforhodamine B assay relative to control; assay type: functional; conditions: read-out: Activity
[9] = system: MDA-MB-435; experiment: Cytotoxicity against human MDA-MB-435 cells assessed as cell viability at 10 uM incubated for 48 hrs by sulforhodamine B assay relative to control; assay type: functional; conditions: read-out: Activity
[10] = system: OVCAR-5; experiment: Cytotoxicity against human OVCAR-5 cells assessed as cell viability at 10 uM incubated for 48 hrs by sulforhodamine B assay relative to control; assay type: functional; conditions: read-out: Activity
[11] = system: OVCAR-8; experiment: Cytotoxicity against human OVCAR-8 cells assessed as cell viability at 10 uM incubated for 48 hrs by sulforhodamine B assay relative to control; assay type: functional; conditions: read-out: Activity
[12] = system: U-251; experiment: Cytotoxicity against human U-251 cells assessed as cell viability at 10 uM incubated for 48 hrs by sulforhodamine B assay relative to control; assay type: functional; conditions: read-out: Activity
[13] = system: 786-0; experiment: Cytotoxicity against human 786-0 cells assessed as cell viability at 10 uM incubated for 48 hrs by sulforhodamine B assay relative to control; assay type: functional; conditions: read-out: Activity
[14] = system: Malme-3M; experiment: Cytotoxicity against human Malme-3M cells assessed as cell viability at 10 uM incubated for 48 hrs by sulforhodamine B assay relative to control; assay type: functional; conditions: read-out: Activity
[15] = system: BT-549; experiment: Cytotoxicity against human BT-549 cells assessed as cell viability at 10 uM incubated for 48 hrs by sulforhodamine B assay relative to control; assay type: functional; conditions: read-out: Activity
[16] = system: RXF 393; experiment: Cytotoxicity against human RXF 393 cells assessed as cell viability at 10 uM incubated for 48 hrs by sulforhodamine B assay relative to control; assay type: functional; conditions: read-out: Activity
[17] = system: NCI/ADR-RES; experiment: Cytotoxicity against human NCI/ADR-RES cells assessed as cell viability at 10 uM incubated for 48 hrs by sulforhodamine B assay relative to control; assay type: functional; conditions: read-out: Activity
[18] = system: Hs-578T; experiment: Cytotoxicity against human HS-578T cells assessed as cell viability at 10 uM incubated for 48 hrs by sulforhodamine B assay relative to control; assay type: functional; conditions: read-out: Activity
[19] = system: SK-MEL-28; experiment: Cytotoxicity against human SK-MEL-28 cells assessed as reduction in cell viability by MTT assay; assay type: functional, cell-based
[20] = system: A-375; experiment: Cytotoxicity against human A-375 cells assessed as reduction in cell viability by MTT assay; assay type: functional, cell-based

SMILES | viability at 10 µM [1] [%] | viability at 10 µM [2] [%] | viability at 10 µM [3] [%] | viability at 10 µM [4] [%] | viability at 10 µM [5] [%] | viability at 10 µM [6] [%] | viability at 10 µM [7] [%] | viability at 10 µM [8] [%] | viability at 10 µM [9] [%] | viability at 10 µM [10] [%] | viability at 10 µM [11] [%] | viability at 10 µM [12] [%] | viability at 10 µM [13] [%] | viability at 10 µM [14] [%] | viability at 10 µM [15] [%] | viability at 10 µM [16] [%] | viability at 10 µM [17] [%] | viability at 10 µM [18] [%] | pIC50 [19] | pIC50 [20]
O=C(NCCNc1nccc(-c2c(-c3cccc(F)c3)nc3sccn23)n1)C1CCCCC1 | 88.6 | 73.6 | 122 | 71.8 | 75.2 | 93.6 | 84.9 | 76.3 | 65.5 | 141 | 56.9 | 90.5 | 69.1 | 130 | 93.9 | 78.2 | 66.9 | 91.8 |  | 
O=S(=O)(NCCCNc1nccc(-c2c(-c3cccc(F)c3)nc3sccn23)n1)c1ccc(O)cc1 | 87.6 | 70.3 | 107 | 82.4 | 75 | 92 | 99.3 | 80.5 | 33.4 | 113 | 66.2 | 73.2 | 65.5 | 107 | 82.5 | 84 | 79.1 | 85.6 |  | 
O=S(=O)(NCCNc1nccc(-c2c(-c3cccc(F)c3)nc3sccn23)n1)c1ccccc1 | 59.5 | 41.4 | 63.1 | 40 | 33.1 | 47.4 | 65.5 | 58.9 | 17.4 | 79.6 | 33.9 | 44 | 47.4 | 68.5 | 50.4 | 64.1 | 46.3 | 55.5 | 4.72 | 4.96
O=C(NCCNc1nccc(-c2c(-c3cccc(F)c3)nc3sccn23)n1)c1ccc(C(F)(F)F)cc1 | 86.1 | 59.4 | 103 | 81.8 | 61 | 74.4 | 95.7 | 76.5 | 47.7 | 93.5 | 54.8 | 77 | 65.7 | 55.7 | 78.9 | 81.9 | 73.1 | 85.2 | 5.03 | 5.06
O=S(=O)(NCCNc1nccc(-c2c(-c3cccc(F)c3)nc3sccn23)n1)c1cccc2ccccc12 | 112 | 107 | 116 | 105 | 80.2 | 106 | 109 | 103 | 87.7 | 127 | 89.4 | 97.4 | 95.4 | 118 | 104 | 102 | 97.3 | 103 |  | 
O=S(=O)(NCCCNc1nccc(-c2c(-c3cccc(F)c3)nc3sccn23)n1)c1cccc2ccccc12 | 71.7 | 42.7 | 53.9 | 40.1 | 41.2 | 34.6 | 72.8 | 68.7 | 22.6 | 80.9 | 38.5 | 59.1 | 52.9 | 78.7 | 65 | 62.9 | 47.1 | 55.9 |  | 
O=S(=O)(NCCCNc1nccc(-c2c(-c3cccc(F)c3)nc3sccn23)n1)c1cccc(F)c1 | 72.3 | 28.6 | 40.5 | 26.8 | 27.1 | 51.1 | 86.4 | 50.7 | 24 | 110 | 18.4 | 70 | 66.3 | 63.2 | 33.2 | 78.8 | 17.6 | 63.7 | 5.07 | 4.86
O=C(NCCCNc1nccc(-c2c(-c3cccc(F)c3)nc3sccn23)n1)c1ccc(C(F)(F)F)cc1 | 74 | 82.8 | 115 | 74.7 | 70.8 | 87.5 | 104 | 82.3 | 68.7 | 126 | 73.9 | 83 | 58.9 | 121 | 83.4 | 74.6 | 74.7 | 75.7 |  | 
O=C(NCCCNc1nccc(-c2c(-c3cccc(F)c3)nc3sccn23)n1)C1CCCCC1 | 78.9 | 57.6 | 111 | 85.9 | 73.9 | 89.8 | 100 | 82.1 | 50.5 | 105 | 71.1 | 79.6 | 62.1 | 74.7 | 78.6 | 94.3 | 72.6 | 80.2 |  | 
